Measured values: US10308659B2, “Pyridine derivatives” (Hoffmann-La Roche Inc., priority 2013, dated 2019)

Experiments:
[1] = molecular target: human CB2 receptors (Homo sapiens (Human), UniProt P34972); assay: cAMP assay, CHO cells expressing human CB2 receptors; format: cell-based; settings: functional cAMP assay, CHO cells expressing human CB2; read-out: EC50 CB2 human
Protocol: (§1) CHO cells expressing human CB1 or CB2 receptors are seeded 17-24 hours prior to the experiment 50.000 cells per well in a black 96 well plate with flat clear bottom (Corning Costar #3904) in DMEM (Invitrogen No. 31331), 1×HT supplement, with 10% fetal calf serum and incubated at 5% CO2 and 37° C. in a humidified incubator. The growth medium was exchanged with Krebs Ringer Bicarbonate buffer with 1 mM IBMX and incubated at 30° C. for 30 min. Compounds were added to a final assay volume of 100 μl and incubated for 30 min at 30° C. […] The time-resolved energy transfer is measured by a TRF reader (Evotec Technologies GmbH), equipped with a ND:YAG laser as excitation source. The plate is measured twice with the excitation at 355 nm and at the emission with a delay of 100 ns and a gate of 100 ns, total exposure time 10 s at 730 (bandwidth30 nm) or 645 nm (bandwidth 75 nm), respectively. The FRET signal is calculated as follows: FRET=T730-Alexa730-P(T645-B645) with P=Ru730-B730/Ru645-B645, where T730 is the test well measured at 730 nM, T645 is the test well measured at 645 nm, B730 and B645 are the buffer controls at 730 nm and 645 nm, respectively. cAMP content is determined from the function of a standard curve spanning from 10 μM to 0.13 nM cAMP.
(§2) EC50 values were determined using Activity Base analysis (ID Business Solution, Limited).

[2] = molecular target: human CB1 receptors (Homo sapiens (Human), UniProt P21554); assay: cAMP assay, CHO cells expressing human CB1 receptors; format: cell-based; settings: functional cAMP assay, CHO cells expressing human CB1; read-out: EC50 CB1 human
Sequence of human CB1 receptors (P21554 whole entry): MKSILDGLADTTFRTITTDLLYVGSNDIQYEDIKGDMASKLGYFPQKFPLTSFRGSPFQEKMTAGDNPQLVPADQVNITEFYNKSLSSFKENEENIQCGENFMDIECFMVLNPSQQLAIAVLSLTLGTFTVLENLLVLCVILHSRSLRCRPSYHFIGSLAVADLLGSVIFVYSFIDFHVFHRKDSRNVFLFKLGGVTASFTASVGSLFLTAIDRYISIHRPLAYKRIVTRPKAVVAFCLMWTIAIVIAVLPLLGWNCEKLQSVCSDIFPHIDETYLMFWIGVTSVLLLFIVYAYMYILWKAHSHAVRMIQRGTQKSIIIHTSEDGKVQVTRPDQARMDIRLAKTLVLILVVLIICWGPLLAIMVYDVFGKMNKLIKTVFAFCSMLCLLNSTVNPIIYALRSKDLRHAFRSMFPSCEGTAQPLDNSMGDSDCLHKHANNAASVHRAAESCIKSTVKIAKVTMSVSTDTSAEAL
Protocol: as §1, §2

Sequence of human CB2 receptors (P34972 whole entry): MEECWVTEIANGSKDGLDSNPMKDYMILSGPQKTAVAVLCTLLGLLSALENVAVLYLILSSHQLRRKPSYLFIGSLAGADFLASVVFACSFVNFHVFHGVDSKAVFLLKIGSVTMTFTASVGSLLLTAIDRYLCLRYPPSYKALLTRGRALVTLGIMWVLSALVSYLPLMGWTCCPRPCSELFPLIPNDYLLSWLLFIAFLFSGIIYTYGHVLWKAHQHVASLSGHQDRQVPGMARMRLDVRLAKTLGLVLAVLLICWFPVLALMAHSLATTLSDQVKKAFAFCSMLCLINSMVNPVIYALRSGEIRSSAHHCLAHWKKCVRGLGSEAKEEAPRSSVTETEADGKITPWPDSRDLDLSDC

| SMILES | EC50 [1] [nM] | EC50 [2] [nM] |
| --- | --- | --- |
| CCc1nc(-c2cc(OCC3CC3)c(C3CC3)cn2)no1 [Example 13, 3-[5-cyclopropyl-4-(cyclopropylmethoxy)pyridin-2-yl]-5-ethyl-1,2,4-oxadiazole] | 31.9 | > 10000 |
| CC(C)c1nc(-c2cc(OCC3CC3)c(C3CC3)cn2)no1 [Example 14, 3-[5-cyclopropyl-4-(cyclopropylmethoxy)pyridin-2-yl]-5-propan-2-yl-1,2,4-oxadiazole] | 3.7 | > 10000 |
| CC(C)(C)c1nc(-c2cc(OCc3ccc(F)cc3)c(C3CC3)cn2)no1 [Example 53, 5-tert-butyl-3-[5-cyclopropyl-4-[(4-fluorophenyl)methoxy]pyridin-2-yl]-1,2,4-oxadiazole] | 1.4 | 55.1 |
| CC(C)c1nc(-c2cc(OCC(F)(F)F)c(N3CC(F)(F)C3)cn2)no1 [Example 45, 3-[5-(3,3-difluoroazetidin-1-yl)-4-(2,2,2-trifluoroethoxy)pyridin-2-yl]-5-propan-2-yl-1,2,4-oxadiazole] | 77.8 | > 10000 |
| CC1(c2nc(-c3cc(OCC(F)(F)F)c(N4CC(F)(F)C4)cn3)no2)COC1 [Example 47, 3-[5-(3,3-difluoroazetidin-1-yl)-4-(2,2,2-trifluoroethoxy)pyridin-2-yl]-5-(3-methyloxetan-3-yl)-1,2,4-oxadiazole] | 166 | > 10000 |
| CC(C)(C)c1nc(-c2cc(OCC3COC3)c(C3CC3)cn2)no1 [Example 90, 5-tert-butyl-3-[5-cyclopropyl-4-(oxetan-3-ylmethoxy)pyridin-2-yl]-1,2,4-oxadiazole] | 11.8 | > 10000 |
| CN1CCCCC1COc1cc(-c2noc(C(C)(C)C)n2)ncc1C1CC1 (stereo not shown) [Example 97, 5-tert-butyl-3-[5-cyclopropyl-4-[(1-methylpiperidin-2-yl)methoxy]pyridin-2-yl]-1,2,4-oxadiazole] | 19 | > 10000 |
| C[C@@H](Oc1cc(-c2nc(C(C)(C)C)no2)ncc1C1CC1)C(F)(F)F [Example 51, 3-tert-butyl-5-[5-cyclopropyl-4-[(2R)-1,1,1-trifluoropropan-2-yl]oxypyridin-2-yl]-1,2,4-oxadiazole] | 61.8 | > 10000 |
| CCC1(C)N=C(c2cc(OCC(F)(F)F)c(C3CC3)cn2)NC1=O (stereo not shown) [Example 68, 2-[5-cyclopropyl-4-(2,2,2-trifluoroethoxy)pyridin-2-yl]-4-ethyl-4-methyl-1H-imidazol-5-one] | 72.6 | > 10000 |
| CC(C)(C)c1nc(-c2cc(OC3CCOCC3)c(C3(F)COC3)cn2)no1 [Example 109, 5-tert-butyl-3-[5-(3-fluorooxetan-3-yl)-4-(oxan-4-yloxy)pyridin-2-yl]-1,2,4-oxadiazole] | 162 | > 10000 |
| c1c(-c2noc(C3CNC3)n2)ncc(C2CC2)c1OCC1CC1 [Example 29, 5-(azetidin-3-yl)-3-[5-cyclopropyl-4-(cyclopropylmethoxy)pyridin-2-yl]-1,2,4-oxadiazole] | 797 | > 10000 |
| CC(C)(O)c1nc(-c2cc(OCC3CC3)c(C3CC3)cn2)no1 [Example 26, 2-[3-[5-cyclopropyl-4-(cyclopropylmethoxy)pyridin-2-yl]-1,2,4-oxadiazol-5-yl]propan-2-ol] |  | > 10000 |
| Cc1cc(COc2cc(-c3noc(C(C)(C)C)n3)ncc2C2CC2)no1 [Example 107, 5-tert-butyl-3-[5-cyclopropyl-4-[(5-methyl-1,2-oxazol-3-yl)methoxy]pyridin-2-yl]-1,2,4-oxadiazole] | 95.8 | > 10000 |
| CC(C)(C)c1nc(-c2cc(N3CCC(O)C3)c(C3CC3)cn2)no1 (stereo not shown) [Example 73, 1-[2-(5-tert-butyl-1,2,4-oxadiazol-3-yl)-5-cyclopropylpyridin-4-yl]pyrrolidin-3-ol] | 57.2 | > 10000 |
| FC(F)(F)COc1cc(-c2nc(C3CC3)no2)ncc1C1CC1 [Example 7, 3-cyclopropyl-5-[5-cyclopropyl-4-(2,2,2-trifluoroethoxy)pyridin-2-yl]-1,2,4-oxadiazole] |  | > 10000 |
| CC(C)(C)c1nc(-c2cc(OCC(F)(F)F)c(Cl)cn2)no1 [Example 70, 5-tert-butyl-3-[5-chloro-4-(2,2,2-trifluoroethoxy)pyridin-2-yl]-1,2,4-oxadiazole] | 5.7 | > 10000 |
| CC(C)(C)c1nc(-c2cc(OC3CCOCC3)c(C3CC3)cn2)no1 [Example 63, 5-tert-butyl-3-[5-cyclopropyl-4-(oxan-4-yloxy)pyridin-2-yl]-1,2,4-oxadiazole] | 4.3 | > 10000 |
| CC(C)(C)c1nnc(-c2cc(OC3CCOCC3)c(C3CC3)cn2)o1 [Example 98, 2-tert-butyl-5-[5-cyclopropyl-4-(oxan-4-yloxy)pyridin-2-yl]-1,3,4-oxadiazole] | 42 | > 10000 |
| Cc1noc(-c2cc(OCC3CC3)c(C3CC3)cn2)n1 [Example 1, 5-[5-cyclopropyl-4-(cyclopropylmethoxy)pyridin-2-yl]-3-methyl-1,2,4-oxadiazole] | 25.7 | > 10000 |
| CC(C)(C)c1nc(-c2cc(OCCN3CCCCC3)c(C3CC3)cn2)no1 [Example 95, 5-tert-butyl-3-[5-cyclopropyl-4-(2-piperidin-1-ylethoxy)pyridin-2-yl]-1,2,4-oxadiazole] | 26.1 | > 10000 |
| CC(C)(C)c1nc(-c2cc(OCC3COCCN3)c(C3CC3)cn2)no1 (stereo not shown) [Example 102, 3-[[2-(5-tert-butyl-1,2,4-oxadiazol-3-yl)-5-cyclopropylpyridin-4-yl]oxymethyl]morpholine] |  | > 10000 |
| CC1(c2nc(-c3cc(OCC(F)(F)F)c(C4CC4)cn3)no2)CC1 [Example 34, 3-[5-cyclopropyl-4-(2,2,2-trifluoroethoxy)pyridin-2-yl]-5-(1-methylcyclopropyl)-1,2,4-oxadiazole] |  | > 10000 |
| CC(C)(C)c1nnc(-c2cc(OCC(F)(F)F)c(C3CC3)cn2)o1 [Example 113, 2-tert-butyl-5-[5-cyclopropyl-4-(2,2,2-trifluoroethoxy)pyridin-2-yl]-1,3,4-oxadiazole] |  | > 10000 |
| CC(C)(C)c1noc(-c2cc(OCC(F)(F)F)c(N3CC(F)(F)C3)cn2)n1 [Example 17, 3-tert-butyl-5-[5-(3,3-difluoroazetidin-1-yl)-4-(2,2,2-trifluoroethoxy)pyridin-2-yl]-1,2,4-oxadiazole] |  | > 10000 |
| CC(C)(C)c1nc(-c2cc(OCC(F)(F)F)c(N3CC(F)(F)C3)cn2)no1 [Example 44, 5-tert-butyl-3-[5-(3,3-difluoroazetidin-1-yl)-4-(2,2,2-trifluoroethoxy)pyridin-2-yl]-1,2,4-oxadiazole] |  | > 10000 |
| CC(C)(C)c1nc(-c2cc(OCc3ccc(F)cc3)c(C3CC3)c(Cl)n2)no1 [Example 112, 5-tert-butyl-3-(6-chloro-5-cyclopropyl-4-(4-fluorobenzyloxy)pyridin-2-yl)-1,2,4-oxadiazole] |  | 73.2 |
| CC(C)(C)c1nc(-c2cc(N3CCC4(COC4)C3)c(C3CC3)cn2)no1 [Example 76, 7-[2-(5-tert-butyl-1,2,4-oxadiazol-3-yl)-5-cyclopropylpyridin-4-yl]-2-oxa-7-azaspiro[3.4]octane] |  | > 10000 |
| c1c(C2=NC3(CCCCC3)CO2)ncc(C2CC2)c1OCC1CC1 [Example 22, 2-[5-cyclopropyl-4-(cyclopropylmethoxy)pyridin-2-yl]-3-oxa-1-azaspiro[4.5]dec-1-ene] | 4.2 |  |
